What was measured:
[1] = biological target: GDP-bound NRAS wild-type protein (Homo sapiens, UniProt P01111); experiment: Binding to NRAS by surface plasmon resonance (SPR), Single Cycle Kinetics; details: for NRAS/KRAS (ratio of KD value with respect to NRAS to KD value with respect to KRAS) / NRAS/KRAS (ratio of KD value for NRAS to KD value for KRAS): GDP-bound NRAS wild-type vs GDP-bound KRAS wild-type, SPR
[2] = biological target: GDP-bound HRAS wild-type protein (Homo sapiens, UniProt P01112); experiment: Binding to HRAS by surface plasmon resonance (SPR), Single Cycle Kinetics; details: for HRAS/KRAS (ratio of KD value with respect to HRAS to KD value with respect to KRAS) / HRAS/KRAS (ratio of KD value for HRAS to KD value for KRAS): GDP-bound HRAS wild-type vs GDP-bound KRAS wild-type, SPR
GDP-bound HRAS wild-type protein, sequence (P01112 whole entry): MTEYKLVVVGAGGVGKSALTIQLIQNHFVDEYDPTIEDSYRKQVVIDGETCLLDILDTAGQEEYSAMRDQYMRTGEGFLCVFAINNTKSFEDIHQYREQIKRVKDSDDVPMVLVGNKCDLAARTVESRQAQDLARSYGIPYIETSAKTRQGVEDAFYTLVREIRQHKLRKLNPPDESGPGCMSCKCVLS

GDP-bound NRAS wild-type protein, sequence (P01111 whole entry): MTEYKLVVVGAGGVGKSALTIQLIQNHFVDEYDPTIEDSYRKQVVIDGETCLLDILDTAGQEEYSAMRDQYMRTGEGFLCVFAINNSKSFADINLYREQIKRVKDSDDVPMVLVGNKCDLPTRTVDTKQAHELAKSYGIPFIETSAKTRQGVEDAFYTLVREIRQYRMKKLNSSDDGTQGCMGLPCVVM

Compound | NRAS/KRAS (ratio of KD value with respect to NRAS to KD value with respect to KRAS) ([1]; KD ratio) | HRAS/KRAS (ratio of KD value with respect to HRAS to KD value with respect to KRAS) ([2]; KD ratio) | NRAS/KRAS (ratio of KD value for NRAS to KD value for KRAS) ([1]; KD ratio) | HRAS/KRAS (ratio of KD value for HRAS to KD value for KRAS) ([2]; KD ratio) | further results
CC[C@H](C)[C@@H]1NC(=O)[C@H](CC(C)C)N(C)C(=O)C[C@@H](C(=O)N(C)C)N(CCC2CCCC2)C(=O)[C@H](C2CCCC2)N(C)C(=O)C2(CCC2)NC(=O)[C@@H]2CC(F)(F)CN2C(=O)[C@H](CCc2ccc(C(F)(F)F)c(Cl)c2)NC(=O)CN(C)C(=O)[C@H](Cc2ccc(F)cc2)N2CCCCC[C@@H](C2=O)N(C)C(=O)CN(C)C1=O [PP0977] | B (a compound having 3 or more and less than 10 is denoted as B) | A (a compound having 10 or more and less than 20 is denoted as A) | – | – | –
CC[C@H](C)[C@@H]1NC(=O)[C@H](C2CC2)N(C)C(=O)C[C@@H](C(=O)N(C)CC)N(C)C(=O)[C@H](C2CCCC2)N(C)C(=O)C2(CC(C)(C)C2)NC(=O)[C@@H]2C[C@H](C)CN2C(=O)[C@H](CCc2cc(F)c(C(F)(F)F)c(F)c2)NC(=O)CN(C)C(=O)[C@H](Cc2ccc(C(F)(F)F)cc2)N2CC/C=C\C[C@@H](C2=O)N(C)C(=O)CN(C)C1=O [PP1980] | – | – | A (a compound having 10 or more and less than 20 is denoted as A) | B (a compound having 3 or more and less than 10 is denoted as B) | –
CCC[C@H]1C(=O)N[C@@H]([C@@H](C)CC)C(=O)N(C)CC(=O)N(C)[C@H]2C/C=C\CCN(C2=O)[C@@H](Cc2ccc(C)cc2)C(=O)N(C)CC(=O)N[C@@H](CCc2ccc(C(F)(F)F)c(Cl)c2)C(=O)N2C[C@H](OCC)C[C@H]2C(=O)NC2(CC(C)(C)C2)C(=O)N(C)[C@@H](C(CC)CC)C(=O)N(C)[C@H](C(=O)N(C)C)CC(=O)N1C [PP2146] | – | – | – | – | NRAS/KRAS (ratio of KD value with respect to NRAS to KD value with respect to KRAS) [1]: A (a compound having 10 or more and less than 20 is denoted as A); HRAS/KRAS (ratio of KD value with respect to HRAS to KD value with respect to KRAS) [2]: A (a compound having 10 or more and less than 20 is denoted as A)
CCCOC[C@H]1C(=O)N[C@@H]([C@@H](C)CC)C(=O)N(C)CC(=O)N(C)[C@H]2C/C=C\CCN(C2=O)[C@@H](Cc2ccc(C(F)(F)F)cc2)C(=O)N(C)CC(=O)N[C@@H](CCc2cc(F)c(C(F)(F)F)c(F)c2)C(=O)N2C[C@H](F)C[C@H]2C(=O)NC2(CC(C)(C)C2)C(=O)N(C)[C@@H](C2CCCC2)C(=O)N(C)[C@H](C(=O)N(C)CCC)CC(=O)N1C [PP1698] | – | – | A (a compound having 10 or more and less than 20 is denoted as A) | A (a compound having 10 or more and less than 20 is denoted as A) | –
CCO[C@@H]1C[C@H]2C(=O)NC3(CC(C)(C)C3)C(=O)N(C)[C@@H](C3CCCC3)C(=O)N(C)[C@H](C(=O)N(C)C)CC(=O)N(C)[C@@H](CC(F)F)C(=O)N[C@@H]([C@@H](C)CC)C(=O)N(C)CC(=O)N(C)[C@H]3C/C=C\CCN(C3=O)[C@@H](Cc3ccc(C(F)(F)F)cc3)C(=O)N(C)CC(=O)N[C@@H](CCc3ccc(C(F)(F)F)c(Cl)c3)C(=O)N2C1 [PP1747] | – | – | A (a compound having 10 or more and less than 20 is denoted as A) | A (a compound having 10 or more and less than 20 is denoted as A) | –
CCC[C@H]1C(=O)N[C@@H]([C@@H](C)CC)C(=O)N(C)CC(=O)N(C)[C@H]2C/C=C\CCN(C2=O)[C@@H](Cc2ccc(C)cc2)C(=O)N(C)CC(=O)N[C@@H](CCc2ccc3c(C)cn(C)c3c2)C(=O)N2C[C@H](OCC)C[C@H]2C(=O)NC2(CC(C)(C)C2)C(=O)N(C)[C@@H](C2CCCC2)C(=O)N(C)[C@H](C(=O)N(C)C)CC(=O)N1C [PP2899] | – | – | – | – | NRAS/KRAS (ratio of KD value with respect to GDP-bound NRAS wild-type protein to KD value with respect to KRAS) ([1]; KD ratio NRAS/KRAS, class symbols): A (a compound having 10 or more and less than 20 is denoted as A); HRAS/KRAS (ratio of KD value with respect to GDP-bound HRAS wild-type protein to KD value with respect to KRAS) ([2]; KD ratio HRAS/KRAS, class symbols): B (a compound having 3 or more and less than 10 is denoted as B)
CCO[C@@H]1C[C@H]2C(=O)NC3(CCC3)C(=O)N(C)[C@@H](C3CCCC3)C(=O)N(C)[C@H](C(=O)N3CCOCC3)CC(=O)N(C)[C@@H](C)C(=O)N[C@@H]([C@@H](C)CC)C(=O)N(C)CC(=O)N(C)[C@H]3CCCCCN(C3=O)[C@@H](Cc3ccc(F)cc3)C(=O)N(C)CC(=O)N[C@@H](CCc3cc(F)c(C(F)(F)F)c(F)c3)C(=O)N2C1 [PP1175] | B (a compound having 3 or more and less than 10 is denoted as B) | B (a compound having 3 or more and less than 10 is denoted as B) | – | – | –
CCO[C@@H]1C[C@H]2C(=O)NC3(CCC3)C(=O)N(C)[C@@H](C3CCCC3)C(=O)N(C)[C@H](C(=O)N3CCOCC3)CC(=O)N(C)[C@@H](COCC(F)(F)F)C(=O)N[C@@H]([C@@H](C)CC)C(=O)N(C)CC(=O)N(C)[C@H]3CCCCCN(C3=O)[C@@H](Cc3ccc(C(F)(F)F)cc3)C(=O)N(C)CC(=O)N[C@@H](CCc3cc(F)c(C(F)(F)F)c(F)c3)C(=O)N2C1 [PP0853] | B (a compound having 3 or more and less than 10 is denoted as B) | B (a compound having 3 or more and less than 10 is denoted as B) | – | – | –
